We go through 12 molecules from ChEMBL document CHEMBL1201862, “PubChem BioAssay data set” (2004).

Each structure is given as a SMILES string.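 Step 1: Grow cells in 96-well plates. Step 2: Expose to compound for 48 hours at 5 concentrations. Step 3: Interpolate endpoints linearly; if unreached, use highest concentration. GI50 = concentration required for 50% inhibition of growth.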 Active and inactive are the calls of the source. Cut-off read from the data, not from the text of the source: active = GI50 up to about 1.1 µM and inactive = higher.

What all share (assay): NCI anticancer screen, dose series, 48 h
The test system of assay [1] is HOP-92.
For assay [2], the system named is CAKI-1.
Assay [3] deals with SF-268.
The subject of assay [4] is HOP-62.
For assay [5], the system named is CCRF-CEM.
Assay [6] relates to HL-60.
For assay [7], the system named is LOX IMVI.
Assay [8] concerns UO-31.
Assay [9] has as its system OVCAR-4.
Assay [10] deals with NCI-H23.
Assay [11] has as its system TK-10.
Assay [12] concerns RXF 393.
The subject of assay [13] is 786-0.
Assay [14] concerns SK-OV-3.
Assay [15] relates to MOLT-4.
The test system of assay [16] is OVCAR-5.
In assay [17] the test system is SK-MEL-2.

`CCOC(=O)C(/C(=N\NC(=O)OC)C(=O)Nc1cc(OC)ccc1OC)c1cnc2ccccc2n1` (configuration not stated): the GI50 was > 100 µM (inactive) in assay [1]; > 100 µM (inactive) in [2]; > 100 µM (inactive) in [3]; > 100 µM (inactive) in assay [4]; > 100 µM (inactive) in assay [5]; 69.2 µM (inactive) in assay [6]. Moreover, the GI50 in [7], in assay [8], in assay [9], in assay [10], in assay [11] and in assay [12] was > 100 µM (inactive) each time. The GI50 in assay [13] and in [14] was > 100 µM (inactive) in each case.

On to `CCCCCCCCCOC(=S)NC`, for which the GI50 in assay [1] is 18.2 µM (inactive); in [15] it was 17.1 µM (inactive); in assay [2], 20.7 µM (inactive); in [3], 19.5 µM (inactive); in assay [5], 19.7 µM (inactive); in assay [6] it was 15.4 µM (inactive). Further, the GI50 in [7] is 18.2 µM (inactive); in assay [8], 11.2 µM (inactive); in assay [9], 19.6 µM (inactive); in assay [10] it was 16.7 µM (inactive); in assay [16] it was 18.3 µM (inactive); in assay [11], 21.3 µM (inactive). Besides, the GI50 in assay [12] was > 10 µM (inactive); in assay [13] it was 18.2 µM (inactive); in assay [14], 24.5 µM (inactive); in assay [17] it was 19.5 µM (inactive).

`NNC(=O)CCC(=O)Nc1ccc(Cl)cc1Cl`: the GI50 in assay [1], in assay [15], in assay [2], in assay [3], in assay [4] and in [5] was > 100 µM (inactive) throughout. In addition, the GI50 in assay [6] was 94.4 µM (inactive); in [7], 43.8 µM (inactive); in assay [8] it was > 100 µM (inactive); in assay [9], > 100 µM (inactive); in assay [10], > 100 µM (inactive); in assay [16], > 100 µM (inactive). For the same molecule, the GI50 in assay [11] is > 100 µM (inactive); in assay [12], > 100 µM (inactive); in assay [13], > 100 µM (inactive); in assay [14], > 100 µM (inactive); in [17], 54.6 µM (inactive).

On to `O=[N+]([O-])c1cccc(/C=N\NS(=O)(=O)c2ccc(Cl)cc2)c1O`, for which the GI50 in assay [1] is 42.6 µM (inactive); in assay [15], 47.5 µM (inactive); in assay [2], > 100 µM (inactive); in assay [3], > 100 µM (inactive); in [4] it was > 100 µM (inactive); in assay [5], 31.7 µM (inactive). In addition, the GI50 in assay [6] is 46.9 µM (inactive); in assay [7], > 100 µM (inactive); in assay [8], 67.3 µM (inactive); in [9], > 100 µM (inactive); in [10], 44.3 µM (inactive); in [16] it was > 100 µM (inactive). The GI50 is > 100 µM (inactive) in [11]; 37.8 µM (inactive) in [12]; > 100 µM (inactive) in assay [13]; > 100 µM (inactive) in assay [14]; 76.6 µM (inactive) in [17].

In the case of `O=C(c1ccccc1)[C@H]1Nc2cnccc2C2c3ccccc3CC21` (some centres not stated), the GI50 was 13.1 µM (inactive) in assay [1]; 2.99 µM (inactive) in [15]; 24.9 µM (inactive) in assay [2]; 7.35 µM (inactive) in assay [3]; 25 µM (inactive) in assay [4]; 3.27 µM (inactive) in [5]. In addition, the GI50 in [6] is 4.63 µM (inactive); in [7], 1.57 µM (inactive); in [8] it was 7.21 µM (inactive); in [9], 0.564 µM (active); in [10] it was 8.51 µM (inactive); in assay [16], 28.4 µM (inactive). Further, the GI50 in assay [11] is 35.1 µM (inactive); in assay [12] it was 14.8 µM (inactive); in assay [13], 12.8 µM (inactive); in assay [14], 20.2 µM (inactive); in assay [17], 11.1 µM (inactive).

In the case of `CN1C(c2ccccc2)CC(C)(O)CC1c1ccccc1` (configuration not stated), the GI50 in [1], in assay [15], in assay [2], in assay [3], in [4] and in assay [5] was > 100 µM (inactive) each time. In addition, the GI50 was 99.5 µM (inactive) in assay [6]; > 100 µM (inactive) in assay [7]; > 100 µM (inactive) in assay [8]; > 100 µM (inactive) in [9]; > 100 µM (inactive) in assay [10]; > 100 µM (inactive) in [16]. In addition, the GI50 in [11], in assay [12], in [13], in [14] and in assay [17] was > 100 µM (inactive) throughout.

Consider `CC(=O)OC(OC(C)=O)c1ncccc1C(=O)OC(C)C`, for which the GI50 in assay [1] was 18.2 µM (inactive); in assay [15], 35.1 µM (inactive); in assay [2] it was > 100 µM (inactive); in assay [3], 13.7 µM (inactive); in assay [4] it was > 100 µM (inactive); in assay [5], 7.26 µM (inactive). The GI50 is 8.65 µM (inactive) in assay [6]; 20.9 µM (inactive) in assay [7]; 61.7 µM (inactive) in [8]; > 100 µM (inactive) in assay [9]; 56.1 µM (inactive) in assay [10]; > 100 µM (inactive) in assay [16]. The GI50 is > 100 µM (inactive) in [11]; 39.8 µM (inactive) in assay [12]; > 100 µM (inactive) in assay [13]; > 100 µM (inactive) in [14]; > 100 µM (inactive) in assay [17].

For the molecule `CN(C)C1=NC2=S(SC(Nc3ccccc3)=N2)S1` (configuration not stated), the GI50 in [1] is 22.7 µM (inactive); in assay [15], 10.3 µM (inactive); in assay [2], 26.5 µM (inactive); in assay [3] it was 34.5 µM (inactive); in assay [4], 24.2 µM (inactive); in assay [5], 15.5 µM (inactive). Also, the GI50 in assay [6] was 10 µM (inactive); in [7], 22.7 µM (inactive); in assay [8], 24 µM (inactive); in assay [9], 19 µM (inactive); in assay [10], 28.2 µM (inactive); in [16], 34.8 µM (inactive). For the same molecule, the GI50 in assay [11] was 27.9 µM (inactive); in assay [12] it was 32 µM (inactive); in assay [13], 28.8 µM (inactive); in [14] it was 46.9 µM (inactive); in assay [17], 7.62 µM (inactive).

Take `O=C(CCC/C(CC(=O)c1ccc(Br)cc1)=N\O)Nc1ccccc1`: the GI50 is 73.3 µM (inactive) in assay [1]; 24.5 µM (inactive) in assay [15]; > 100 µM (inactive) in assay [3]; > 100 µM (inactive) in assay [4]; 70.3 µM (inactive) in assay [5]; 65.2 µM (inactive) in assay [6]. Besides, the GI50 is > 100 µM (inactive) in [7]; > 100 µM (inactive) in assay [8]; 76.9 µM (inactive) in [9]; > 100 µM (inactive) in assay [10]; 28.2 µM (inactive) in assay [16]; > 100 µM (inactive) in assay [11]. In addition, the GI50 was 45.9 µM (inactive) in [12], > 100 µM (inactive) in [13] and > 100 µM (inactive) in assay [17].

`CC1CCC2c3c([nH]c4ccccc34)C3C(=O)N(c4ccccc4)C(=O)C3C2C1` (configuration not stated): the GI50 in assay [1] is 11.1 µM (inactive); in [15], 25.4 µM (inactive); in [2], > 250 µM (inactive); in assay [3], 22.9 µM (inactive); in assay [4] it was 32.7 µM (inactive); in assay [5], 20 µM (inactive). In addition, the GI50 in assay [6] was > 250 µM (inactive); in assay [7], 42.8 µM (inactive); in assay [8], 58.3 µM (inactive); in assay [9], > 250 µM (inactive); in assay [10], 34.4 µM (inactive); in assay [16], > 100 µM (inactive). For the same molecule, the GI50 in assay [11] is 21.7 µM (inactive); in assay [12], 12.2 µM (inactive); in assay [13], 13.3 µM (inactive); in [14], 10.1 µM (inactive); in assay [17], 32.5 µM (inactive).

`C/C(=N\N(C)C)c1sc(-n2nc(-c3ccccc3)cc2-c2ccccc2)nc1C`: the GI50 in [1] was 61.9 µM (inactive); in assay [15], 84.3 µM (inactive); in [2], > 100 µM (inactive); in assay [3] it was > 100 µM (inactive); in assay [4] it was > 100 µM (inactive); in assay [5], > 100 µM (inactive). Further, the GI50 in assay [6] was > 100 µM (inactive); in assay [7] it was 16.3 µM (inactive); in [8] it was > 100 µM (inactive); in assay [9], > 100 µM (inactive); in [10], > 100 µM (inactive); in assay [16], 21 µM (inactive). The GI50 was 72.8 µM (inactive) in [11]; > 100 µM (inactive) in assay [12]; > 100 µM (inactive) in assay [13]; > 100 µM (inactive) in [14]; > 100 µM (inactive) in assay [17].

For the molecule `CC(=O)Nc1ccc(/C=C/C(=O)c2sc(-c3cccnc3)nc2C)cc1`, the GI50 in [1], in assay [15], in [2], in [3], in assay [4] and in assay [5] was > 100 µM (inactive) throughout. Also, the GI50 in [6], in [7], in [8], in [10], in assay [16] and in [11] was > 100 µM (inactive) in each case. For the same molecule, the GI50 in assay [12], in assay [13], in assay [14] and in assay [17] was > 100 µM (inactive) in each case.
